How the values were obtained:
PI3Kδ = target: T1, PI3Kδ (Homo sapiens, UniProt O00329); test: PI3Kδ kinase assay (HTRF, PIP3 detection); type: biochemical; details: for PI3Kδ @ 0.01 μM (% Inh): 0.01 μM compound; for PI3Kδ @ 0.01 μM (% Inh) / PI3Kδ @ 0.1 μM (% Inh) / PI3Kδ @ 1 μM (% Inh): 10 μM ATP; for PI3Kδ @ 0.1 μM (% Inh): 0.1 μM compound; for PI3Kδ @ 1 μM (% Inh): 1 μM compound; for IC50: 10 dose IC50, 10 μM ATP
T1 construct: purchased Reaction Biology Corporation
Description: (§1) Compounds of the invention were profiled in a 10 dose IC50 panel against BTK and PI3Kδ, both provided by Reaction Biology Corporation.
PI3Kδ assay: The PIP3 product is detected by displacement of biotin-PIP3 from an energy transfer complex consisting of Europium labeled anti-GST monoclonal antibody, a GST-tagged pleckstrin homology (PH) domain, biotinylated PIP3 and Streptavidin-Allophycocyanin (APC). […] The PIP3 product formed by PI 3-Kinase(h) activity displaces biotin-PIP3 from the complex resulting in a loss of energy transfer and thus a decrease in signal. This is a 3-step reaction: First, the kinase reaction with PIP2 substrate is carried out in the presence of ATP (10 μM), and the reaction is quenched with stop Solution, and then finally detect by adding Detection Mixture followed by incubation (10 min). Reaction procedure: 1) Prepare substrate in freshly prepared Reaction Buffer. 2) Deliver kinase into the substrate solution and gently mix. 3) Deliver compounds in 100% DMSO (1 μM) into the kinase reaction mixture by Acoustic technology (Echo550; nanoliter range), incubate for 10 min at RT. 4) Deliver ATP into the reaction mixture to initiate the reaction. 5) Incubate for 30 min at 30° C. 6) Quench the reaction with Stop Solution. 7) Add Detection Mixture, and incubate for overnight. […] The emission ratio is converted into μM PIP3 production based on PIP3 standard curves. The nonlinear regression to obtain the standard curve and IC50 values are performed using Graphpad Prism software. Assay Buffer: HEPES 50 mM (pH7.0), NaN3 0.02%, BSA 0.01%, Orthovanadate 0.1 mM, 1% DMSO. Detection buffer: HEPES 10 mM (pH7.0), BSA 0.02%, KF 0.16 M, EDTA 4 mM. Substrate: 10 μM PIP2 substrate (PI(4,5)P2).

BTK = target: T2, BTK (Homo sapiens, UniProt Q06187); test: BTK kinase assay (HotSpot, 33P ATP); type: biochemical; details: for BTK @ 0.01 μM (% Inh): 0.01 μM compound; for BTK @ 0.01 μM (% Inh) / BTK @ 0.1 μM (% Inh) / BTK @ 1 μM (% Inh): 10 μM ATP; for BTK @ 0.1 μM (% Inh): 0.1 μM compound; for BTK @ 1 μM (% Inh): 1 μM compound; for IC50: 10 dose IC50, 10 μM ATP
T2 construct: purchased Reaction Biology Corporation
T2 sequence (Q06187 whole entry): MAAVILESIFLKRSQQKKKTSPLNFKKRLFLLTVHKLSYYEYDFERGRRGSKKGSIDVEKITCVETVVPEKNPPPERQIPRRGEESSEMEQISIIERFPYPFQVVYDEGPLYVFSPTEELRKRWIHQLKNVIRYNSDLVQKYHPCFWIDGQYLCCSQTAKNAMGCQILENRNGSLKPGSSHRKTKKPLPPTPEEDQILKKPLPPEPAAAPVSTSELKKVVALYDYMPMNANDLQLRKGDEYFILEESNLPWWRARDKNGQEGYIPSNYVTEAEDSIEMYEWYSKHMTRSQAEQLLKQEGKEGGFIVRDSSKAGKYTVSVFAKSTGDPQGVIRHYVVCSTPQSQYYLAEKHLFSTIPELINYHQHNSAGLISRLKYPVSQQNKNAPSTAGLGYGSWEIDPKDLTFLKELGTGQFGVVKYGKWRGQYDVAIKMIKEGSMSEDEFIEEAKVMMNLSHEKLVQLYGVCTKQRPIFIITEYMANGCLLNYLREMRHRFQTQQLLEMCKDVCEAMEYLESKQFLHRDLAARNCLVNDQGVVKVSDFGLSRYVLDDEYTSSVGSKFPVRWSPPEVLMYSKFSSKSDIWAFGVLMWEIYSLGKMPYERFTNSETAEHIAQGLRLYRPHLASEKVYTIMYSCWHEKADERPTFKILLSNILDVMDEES
Procedure: as §1
BTK assay: In vitro profiling protein kinases was performed using the “HotSpot” assay platform. Briefly, specific kinase/substrate pairs along with required cofactors were prepared in reaction buffer. Compounds were prepared as 10 mM stock solutions in DMSO. Compounds were delivered into the reaction, followed 15-20 minutes later by addition of a mixture of ATP (Sigma, St. Louis Mo.) and ^33P ATP (Perkin Elmer, Waltham Mass.) to a final concentration of 10 μM. […] IC50 values and curve fits were obtained using Prism (GraphPad Software). Buffer Conditions: 20 mM Hepes (pH 7.5), 10 mM MgCl2, 1 mM EGTA, 0.02% Brij35, 0.02 mg/mL BSA, 0.1 mM Na3VO4, 2 mM DTT, 1% DMSO.

T1 sequence (O00329 whole entry): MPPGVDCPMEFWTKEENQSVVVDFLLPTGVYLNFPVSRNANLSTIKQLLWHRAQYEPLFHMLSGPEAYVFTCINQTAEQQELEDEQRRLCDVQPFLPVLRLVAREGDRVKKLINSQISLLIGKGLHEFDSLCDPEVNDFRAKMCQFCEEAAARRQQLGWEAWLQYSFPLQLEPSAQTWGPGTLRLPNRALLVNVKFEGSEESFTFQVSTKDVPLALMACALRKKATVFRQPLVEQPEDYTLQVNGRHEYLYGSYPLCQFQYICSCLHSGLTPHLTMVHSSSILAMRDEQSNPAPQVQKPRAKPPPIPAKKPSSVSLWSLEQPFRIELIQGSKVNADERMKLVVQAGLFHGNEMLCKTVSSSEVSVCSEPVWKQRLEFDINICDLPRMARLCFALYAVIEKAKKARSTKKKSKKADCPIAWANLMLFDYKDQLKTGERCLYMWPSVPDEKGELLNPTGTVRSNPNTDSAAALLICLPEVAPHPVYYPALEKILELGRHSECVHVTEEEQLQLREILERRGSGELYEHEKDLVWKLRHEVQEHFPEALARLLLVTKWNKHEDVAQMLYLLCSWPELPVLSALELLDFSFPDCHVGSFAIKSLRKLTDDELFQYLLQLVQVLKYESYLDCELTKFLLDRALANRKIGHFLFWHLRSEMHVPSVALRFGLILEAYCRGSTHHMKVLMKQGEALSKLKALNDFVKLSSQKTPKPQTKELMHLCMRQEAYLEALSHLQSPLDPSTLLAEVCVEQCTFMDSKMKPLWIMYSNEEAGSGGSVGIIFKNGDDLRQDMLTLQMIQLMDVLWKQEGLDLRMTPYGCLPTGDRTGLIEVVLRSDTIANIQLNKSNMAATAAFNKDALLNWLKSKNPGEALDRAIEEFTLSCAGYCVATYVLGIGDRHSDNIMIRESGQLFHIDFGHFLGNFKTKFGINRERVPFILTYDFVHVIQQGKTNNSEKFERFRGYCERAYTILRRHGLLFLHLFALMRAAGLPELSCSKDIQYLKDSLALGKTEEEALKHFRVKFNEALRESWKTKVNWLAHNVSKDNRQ
T1 sequence (P27986 whole entry partner): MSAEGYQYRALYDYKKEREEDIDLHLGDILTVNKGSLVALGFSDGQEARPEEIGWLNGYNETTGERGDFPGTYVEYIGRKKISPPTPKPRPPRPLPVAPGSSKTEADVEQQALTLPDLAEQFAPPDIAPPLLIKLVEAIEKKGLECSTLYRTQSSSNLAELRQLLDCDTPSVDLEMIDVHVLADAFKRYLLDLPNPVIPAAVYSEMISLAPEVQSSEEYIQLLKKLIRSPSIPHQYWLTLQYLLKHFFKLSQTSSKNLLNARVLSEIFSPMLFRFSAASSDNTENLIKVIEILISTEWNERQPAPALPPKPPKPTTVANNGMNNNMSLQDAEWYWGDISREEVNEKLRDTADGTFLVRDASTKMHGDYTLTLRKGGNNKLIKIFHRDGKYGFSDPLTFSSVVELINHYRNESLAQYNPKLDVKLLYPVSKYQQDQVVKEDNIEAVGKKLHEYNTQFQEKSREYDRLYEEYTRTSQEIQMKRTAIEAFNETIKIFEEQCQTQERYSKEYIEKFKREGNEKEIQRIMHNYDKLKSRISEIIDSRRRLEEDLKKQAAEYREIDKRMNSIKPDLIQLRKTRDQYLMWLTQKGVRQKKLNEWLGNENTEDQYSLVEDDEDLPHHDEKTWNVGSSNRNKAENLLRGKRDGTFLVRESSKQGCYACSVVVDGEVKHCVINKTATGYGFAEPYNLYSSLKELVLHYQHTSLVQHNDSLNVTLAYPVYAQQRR

PI3Kδ @ 0.01 μM (% Inh) (PI3Kδ)	PI3Kδ @ 0.1 μM (% Inh) (PI3Kδ)	BTK @ 0.01 μM (% Inh) (BTK)	BTK @ 0.1 μM (% Inh) (BTK)	PI3Kδ @ 1 μM (% Inh) (PI3Kδ)	BTK @ 1 μM (% Inh) (BTK)	IC50 (PI3Kδ) [nM]	IC50 (BTK) [nM]	Structure (SMILES)
32.92	40.18	7.68	12.19	–	–	–	–	Nc1ccc(-c2nn(C3Cc4ccccc4C3)c3ncnc(N)c23)cn1 [Compound No. 96, 5-[4-amino-1-(2,3-dihydro-1H-inden-2-yl)-1H-pyrazolo[3,4-d]pyrimidin-3-yl]pyridin-2-amine]
11.71	9.31	1.24	3.3	–	–	–	–	COc1cc(-c2nn(C3Cc4ccccc4C3)c3ncnc(N)c23)cc(C(F)(F)F)c1F [Compound No. 92, 1-(2,3-dihydro-1H-inden-2-yl)-3-[4-fluoro-3-methoxy-5-(trifluoromethyl)phenyl]-1H-pyrazolo[3,4-d]pyrimidin-4-amine]
–	47.56	–	24.51	89.24	71.58	63.9	392	CCOc1ccc(-c2nn(C3Cc4ccccc4C3)c3ncnc(N)c23)cc1OC [Compound No. 71, 1-(2,3-dihydro-1H-inden-2-yl)-3-(4-ethoxy-3-methoxyphenyl)-1H-pyrazolo[3,4-d]pyrimidin-4-amine]
–	–	–	–	–	–	102	784	COc1ccc(-c2nn(C3CCc4ccccc4C3)c3ncnc(N)c23)cc1F (single isomer, unassigned) [Compound No. 14a, 3-(3-fluoro-4-methoxyphenyl)-1-(1,2,3,4-tetrahydronaphthalen-2-yl)-1H-pyrazolo[3,4-d]pyrimidin-4-amine]
3.09	25.54	7	11.01	–	–	–	–	COc1c(Cl)ccc(-c2nn(C3Cc4ccccc4C3)c3ncnc(N)c23)c1Cl [Compound No. 95, 3-(2,4-dichloro-3-methoxyphenyl)-1-(2,3-dihydro-1H-inden-2-yl)-1H-pyrazolo[3,4-d]pyrimidin-4-amine]
–	−1.66	–	24.85	16.5	76.64	–	–	CCOc1c(Cl)cc(-c2nn(C3Cc4ccccc4C3)c3ncnc(N)c23)cc1OC [Compound No. 77, 3-(3-chloro-4-ethoxy-5-methoxyphenyl)-1-(2,3-dihydro-1H-inden-2-yl)-1H-pyrazolo[3,4-d]pyrimidin-4-amine]

More lines, now with the values behind:

Structure (SMILES)	PI3Kδ @ 0.01 μM (% Inh) (PI3Kδ)	PI3Kδ @ 0.1 μM (% Inh) (PI3Kδ)	BTK @ 0.01 μM (% Inh) (BTK)	BTK @ 0.1 μM (% Inh) (BTK)	PI3Kδ @ 1 μM (% Inh) (PI3Kδ)	BTK @ 1 μM (% Inh) (BTK)	IC50 (PI3Kδ) [nM]	IC50 (BTK) [nM]
Nc1ncnc2c1c(/C=C/CO)nn2C1Cc2ccccc2C1 (single isomer, unassigned) [Compound No. 64, (2E)-3-[4-amino-1-(2,3-dihydro-1H-inden-2-yl)-1H-pyrazolo[3,4-d]pyrimidin-3-yl]prop-2-en-1-ol]	–	0.0	–	2.74	4.07	5.76	–	–
N#Cc1c(-c2cc(O)c(F)c(F)c2)c2c(N)ncnc2n1C1Cc2ccccc2C1 [compound 135, 4-amino-5-(3,4-difluoro-5-hydroxyphenyl)-7-(2,3-dihydro-1H-inden-2-yl)-7H-pyrrolo[2,3-d]pyrimidine-6-carbonitrile]	51.74	84.33	51.3	88.59	–	–	–	–
COc1ccc(-c2nn(C3CCc4ccccc4C3)c3ncnc(N)c23)cc1F (racemic) [Compound No. 14, 3-(3-fluoro-4-methoxyphenyl)-1-(1,2,3,4-tetrahydronaphthalen-2-yl)-1H-pyrazolo[3,4-d]pyrimidin-4-amine]	–	–	–	–	–	–	7.9	217
Nc1ncnc2c1c(-c1ccc(CO)cc1)nn2C1Cc2ccccc2C1 [Compound No. 55, {4-[4-amino-1-(2,3-dihydro-1H-inden-2-yl)-1H-pyrazolo[3,4-d]pyrimidin-3-yl]phenyl}methanol]	–	15.60	–	14.00	48.96	50.29	10400	2090
COc1cc(F)cc(-c2nn(C3CCc4ccccc43)c3ncnc(N)c23)c1 (stereo not shown) [compound 4, 1-(2,3-dihydro-1H-inden-1-yl)-3-(3-fluoro-5-methoxyphenyl)-1H-pyrazolo[3,4-d]pyrimidin-4-amine]	–	–	–	–	–	–	1830	584
Nc1ncnc2c1c(-c1ccc3c(c1)NCCO3)nn2C1Cc2ccccc2C1 [Compound No. 99, 1-(2,3-dihydro-1H-inden-2-yl)-3-(3,4-dihydro-2H-1,4-benzoxazin-6-yl)-1H-pyrazolo[3,4-d]pyrimidin-4-amine]	17.4	39.74	17.69	56.81	–	–	167	79.6
Nc1ncnc2c1c(-c1ccc3c(c1)OC(F)(F)O3)nn2C1Cc2ccccc2C1 [Compound No. 75, 3-(2,2-difluoro-2H-1,3-benzodioxol-5-yl)-1-(2,3-dihydro-1H-inden-2-yl)-1H-pyrazolo[3,4-d]pyrimidin-4-amine]	–	−0.46	–	10.92	15.57	29.0	–	–
N#Cc1ccc(-c2nn(C3Cc4ccccc4C3)c3ncnc(N)c23)cc1O [Compound No. 94, 4-[4-amino-1-(2,3-dihydro-1H-inden-2-yl)-1H-pyrazolo[3,4-d]pyrimidin-3-yl]-2-hydroxybenzonitrile]	29.77	71.5	8.16	22.48	–	–	–	–
Nc1ncnc2c1c(CCCO)nn2C1Cc2ccccc2C1 (single isomer, unassigned) [Compound No. 65, 3-[4-amino-1-(2,3-dihydro-1H-inden-2-yl)-1H-pyrazolo[3,4-d]pyrimidin-3-yl]propan-1-ol]	–	−4.81	–	4.02	11.18	7.69	–	–
Nc1ncnc2c1c(-c1ccc(O)nc1)nn2C1CCc2ccccc2C1 (stereo not shown) [compound 24, 5-(4-amino-1-(1,2,3,4-tetrahydronaphthalen-2-yl)-1H-pyrazolo[3,4-d]pyrimidin-3-yl)pyridin-2-ol]	–	10.3	–	5.45	–	–	–	–
Nc1ncnc2c1c(-c1cc(O)cc(F)c1)nn2C1CCCc2ccc(F)cc21 (stereo not shown) [compound 41, 3-[4-amino-1-(7-fluoro-1,2,3,4-tetrahydronaphthalen-1-yl)-1H-pyrazolo[3,4-d]pyrimidin-3-yl]-5-fluorophenol]	–	80.15	–	4.89	–	–	–	–
N#Cc1cc(-c2nn(C3Cc4ccccc4C3)c3ncnc(N)c23)ccc1F [Compound No. 97, 5-[4-amino-1-(2,3-dihydro-1H-inden-2-yl)-1H-pyrazolo[3,4-d]pyrimidin-3-yl]-2-fluorobenzonitrile]	24.66	29.59	11.7	14.06	–	–	–	–
Nc1ncnc2c1c(-c1ccc(F)c(O)c1)nn2C1CCc2ccccc21 (stereo not shown) [compound 10, 5-(4-amino-1-indan-1-yl-pyrazolo[3,4-d]pyrimidin-3-yl)-2-fluoro-phenol]	–	22.39	–	58.79	–	–	–	–
Nc1ccc2c(c1)CC(n1nc(-c3cc(O)c(F)c(F)c3)c3c(N)ncnc31)C2 (stereo not shown) [compound 139, 5-[4-amino-1-(5-amino-2,3-dihydro-1H-inden-2-yl)-1H-pyrazolo[3,4-d]pyrimidin-3-yl]-2,3-difluorophenol]	65.26	90.95	80.96	95.07	–	–	–	–
COc1ncc(-c2nn(C3CCc4ccccc4C3)c3ncnc(N)c23)cc1F (stereo not shown) [compound 23, 3-(5-fluoro-6-methoxypyridin-3-yl)-1-(1,2,3,4-tetrahydronaphthalen-2-yl)-1H-pyrazolo[3,4-d]pyrimidin-4-amine]	–	23.11	–	15.45	–	–	–	–

Source: patent publication US20210317140A1, “Heterocyclic Compounds and Methods of Use” (MEDIVATION TECHNOLOGIES, INC, priority 2013, published 2021)
